Assay results as given in patent US20260200849A1, “CATIONIC LIPIDS AND PREPARATION METHOD THEREOF” (RiboX Therapeutics HK Limited, priority 2024, published 2026).
Where “and” joins values, the source holds several entries; their conditions need not be identical. Equal entries are not always repeated.

How the values were obtained:
[1] = LNP size and polydispersity index (PDI) by dynamic light scattering (Zetasizer); type: physicochemical; conditions: for Size (nm): Formulation No. 010 (Ionizable lipid:DSPC:cholesterol:DSPE-PEG2000 = 38:30:30:2, N/P 6), RNA No. 331
Method: (§1) The LNP size and polydispersity index (PDI), determined by dynamic light scattering (DLS), and zeta potential were measured by a Zetasizer machine (Malvern). RNA concentration and encapsulation efficacy (EE %) were analyzed by the Quant-IT Ribogreen kit by calculating the percentage encapsulation at 100%—(RNA-LNPs/RNA-LNPs with Triton X-100).

[2] = RNA encapsulation efficacy (EE %) by Quant-IT Ribogreen kit; type: physicochemical; conditions: LNP
Method: as §1

[3] = tested on: Hep G2 cells; experiment: In vitro expression: luciferase activity in Hep G2 cells transfected with RNA-LNPs; type: cell-based; conditions: 100 ng/mL RNA-LNPs, 72 hours post transfection
Method: 2E5 Hep G2 cells were transfected with 100 ng/mL of RNA-LNPs encoding for firefly-luciferase. At 72 hours post transfection, the cells were washed and lysed. The luciferase expression (2-well repeat) was determined in the cell lysates with the luciferase assay reagent kit (Promega), according to the kit protocol, luciferase activity was measured by a luminometer.

[4] = tested on: Hep G2 cells; experiment: In vitro toxicity: Hep G2 cell viability by CellTiter-Glo; type: cell-based; conditions: 72 hours post transfection, cell only = 100%
Method: 2E5 Hep G2 cells were transfected with 1 μg/mL RNA-LNPs. At 72 hours post transfection, cell viability (2-well repeat) was determined with the CellTiter-Glo® reagent kit, according to the kit protocol, measured by a luminometer. Cell only as control (100%).
The cell viability was calculated according to the following formula: […]

[5] = tested on: Balb/c mice; experiment: In vivo expression by IV, 0.05 mg/kg luciferase RNA-LNPs, IVIS luminescence; conditions: Formulation No. 010, RNA No. 331, female Balb/c mice, 0.05 mg*kg−1 intravenous; for Whole body at 24 h (p/s) (Mean): 24 hours post injection; for Whole body at 72 h (p/s) (Mean): 72 hours post injection
Method in brief: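 IVIS bioluminescence was read after IP luciferin (15 mg/ml): whole-body at 24 and 72 h, or whole-body/liver/spleen at 24 h. Dosing was a single IV injection of 0.05 mg*kg−1 RNA-LNPs encoding firefly luciferase into 7-8 week old female Balb/c mice, N=3.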

[6] = tested on: C57BL/6J mice; experiment: In vivo expression by ID, whole-body/injection site skin/lymph node luminescence; conditions: intradermal 0.15 mg/kg, 72 h post injection, female C57BL/6J mice N=3, Formulation 001, RNA 331
Method: 7-8 week old, female C57BL/6J mice (N=3) were injected with 0.15 mg*kg−1 of RNA-LNPs encoding for firefly-luciferase by intradermal injection. At 72-hours post injection, animals were intraperitoneally injected with 15 mg/mi of Luciferin substrate and whole-body/injection site skin/lymph node luminescence were determined by a bioluminescent in vivo imaging system (IVIS).

[7] = tested on: injection site skin; experiment: In vivo tolerability after intradermal injection: H&E staining of injection site skin; design: species or system C57BL/6J mice; key to Infiltration, mononuclear cells, dermis/subcutaneous, focal, Grade / Edema, subcutaneous, focal, Grade / Erosion, focal, Grade / Skin, Grade: 1==minimal; 2=mild; 3=moderate; 4=marked; 5=severe; N=Normal; NA=Not applicable; —=No data; conditions: intradermal 0.15 mg/kg, 72 h, Formulation 001, RNA 331; for Edema, subcutaneous, focal, Grade / Erosion, focal, Grade / Infiltration, mononuclear cells, dermis/subcutaneous, focal, Grade: per animal; for Total score: sum of lesion grades of the group (N=3)
Method: 7-8 week old, female C57BL/6J mice (N=3) were injected with 0.15 mg*kg−1 of RNA-LNIPs encoding for firefly-luciferase by intradermal injection. At 72-hours post injection, injection site skin from each animal was collected in 10% formalin, for H&E staining. PBS group (N=2) as control. (Note: 1==minimal, 2=mild, 3=moderate, 4=marked, 5=severe; N=Normal; NA=Not applicable; —=No data)

[8] = tested on: MCP-1; experiment: In vivo tolerability by IM: serum MCP-1 by Luminex; conditions: IM 1.0 mg/kg, male C57BL/6J mice N=3, Formulation 001, RNA 331
Method: (§2) 6-8 week old, male C57BL/6J mice (N=3) were injected with 1.0 mg*kg−1 of RNA-LNPs encoding for firefly-luciferase by intramuscular injection. At 2- and 24-hours post injection, about 40 μL blood was harvested and immediately added to the procoagulant containing tube. Stand for 30 min at room temperature and then centrifuged at 2500 g×10 min to obtain serum. About 15 μL serum samples were aliquoted for cytokine (MCP-1 and IL-6) detection by Luminex (ProcartaPlex Mouse 2-plex, Thermo). PBS group as negative control.

[9] = tested on: IL-6; experiment: In vivo tolerability by IM: serum IL-6 by Luminex; conditions: IM 1.0 mg/kg, male C57BL/6J mice N=3, Formulation 001, RNA 331
Method: as §2

[10] = tested on: C57BL/6J mice; experiment: In vivo expression by IM, luciferase RNA-LNPs, whole-body/injection site muscle/organ luminescence; conditions: IM 1.0 mg/kg, 24 h post injection, male C57BL/6J mice N=3, Formulation 001, RNA 331
Method: 6-8 week old, male C57BL/6J mice (N=3) were injected with 1.0 mg*kg−1 of RNA-LNPs encoding for firefly-luciferase by intramuscular injection. At 24-hours post injection, animals were intraperitoneally injected with 15 mg/ml of Luciferin substrate and whole-body/injection site muscle/liver/spleen/kidney/heart/lung luminescence were determined by a bioluminescent in vivo imaging system (IVIS).

[11] = Formulation No. 001, RNA No. 331
[12] = Formulation No. 010, RNA No. 331
[13] = Formulation No. 010, RNA No. 331 (firefly-luciferase)
[14] = 1 μg/mL RNA-LNPs, Formulation 001, RNA 331
[15] = Formulation No. 010, RNA No. 331, 1 μg/mL RNA-LNPs

PDI [1, 11]	Size [1, 11] [nm]	Size (nm) [1] [nm]	PDI [1, 12]	EE (%) [2, 11] [%]	EE (%) [2, 12] [%]	SMILES	In vitro Expression (Mean) ([3]; Formulation 001, RNA 331)	In vitro Expression (Mean) [3, 13]	In vitro cell viability (%) (Mean) [4, 14]	In vitro cell viability (%) (Mean) [4, 15]	Whole body at 24 h (p/s) (Mean) [5]	Whole body at 72 h (p/s) (Mean) [5]	Injection site Skin (p/s) [6] [p/s]	Lymph node (p/s) [6] [p/s]	Whole body (p/s) [6] [p/s]	Edema, subcutaneous, focal, Grade [7]	Erosion, focal, Grade [7]	Infiltration, mononuclear cells, dermis/subcutaneous, focal, Grade [7]	Total score [7]	MCP-1 at 2 h [8] [pg/mL]	other results
0.10	76.05	60.60	0.07	92.16	95.09	CCCCCCCC/C=C\CCCCCCCC(=O)NC(COC(=O)NCCN1CCCCCC1)C(=O)OCCCCCCCCOC(=O)C(CCCCCC)CCCCCCCC (stereo not drawn) [Lipid 701]	6.00E+05	3.96E+05	74.24	96.43	4.00E+08	1.08E+08	3.34E+07	6.94E+06	6.46E+07	— and 1 (2×)	—	1	5	628	MCP-1 at 24 h [8]: 4620 pg/mL; IL-6 at 2 h [9]: 21.2 pg/mL; IL-6 at 24 h [9]: 108 pg/mL; Heart (p/s) [10]: 9.37E+05 p/s; Injection site muscle (p/s) [10]: 5.32E+08 p/s; Kidney (p/s) [10]: 2.70E+07 p/s; Liver (p/s) [10]: 2.35E+08 p/s; Lung (p/s) [10]: 2.10E+06 p/s; Spleen (p/s) [10]: 1.24E+08 p/s; Whole body (p/s) [10]: 8.27E+08 p/s
0.05	65.33	56.88	0.09	96.53	96.83	CCCCC/C=C\C/C=C\CCCCCCCC(=O)NC(COC(=O)NCCN1CCCCC1)C(=O)OCCCCCC(=O)OCC(CCCCCCCC)CCCCCCCCCC (stereo not drawn) [Lipid 728]	3.37E+05	4.71E+05	71.13	90.20	1.86E+08	5.78E+07	4.04E+06	1.03E+06	3.58E+07	— (2×) and 1	—	1	4	421	MCP-1 at 24 h [8]: 3740 pg/mL; IL-6 at 2 h [9]: 24.3 pg/mL; IL-6 at 24 h [9]: 143 pg/mL; Heart (p/s) [10]: 4.42E+05 p/s; Injection site muscle (p/s) [10]: 5.61E+08 p/s; Kidney (p/s) [10]: 1.42E+07 p/s; Liver (p/s) [10]: 7.48E+07 p/s; Lung (p/s) [10]: 1.56E+06 p/s; Spleen (p/s) [10]: 3.40E+07 p/s; Whole body (p/s) [10]: 6.11E+08 p/s
